Test results published in patent publication US20230146455A1, “TREATMENT OF INFLAMMATORY DISEASES WITH PEPTIDES AND PHARMACEUTICAL COMPOSITIONS” (Yuyu Pharma, Inc., priority 2020, published 2023).
“And” between values parts separate entries of the source, which are not always exact repeats. Equal values may be shown once. Where a SMILES comes first, the peptide text is derived from it. [ ]: non-standard residue; d: D form. Hyp = O=C(O)[C@@H]1C[C@@H](O)CN1

Tested on: human PBMCs
Assay: PBMC cell counts (total, live, viability; trypan blue, Countess) with and without LPS and test articles (Example 9)
Assay type: cell-based
Summary of the method: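 Human PBMCs were pretreated 2 h with test articles (0.001–100 uM) or 0.5% DMSO vehicle, then given LPS at 5 ug/ml or no LPS, in triplicate. After 24 hr, total and live cells and viability were counted by 1:1 trypan blue staining on an automated counter.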

[1] = PBMC + LPS(5 ug/ml) + compound 0.001 uM, 24 hr
[2] = PBMC + LPS(5 ug/ml) + compound 0.01 uM, 24 hr
[3] = PBMC + LPS(5 ug/ml) + compound 0.1 uM, 24 hr
[4] = PBMC + LPS(5 ug/ml) + compound 1 uM, 24 hr
[5] = PBMC + LPS(5 ug/ml) + compound 10 uM, 24 hr
[6] = PBMC + LPS(5 ug/ml) + compound 100 uM, 24 hr
[7] = PBMC + LPS(5 ug/ml) + test article 0.001 uM, Mean
[8] = PBMC + LPS(5 ug/ml) + test article 0.001 uM, single replicates
[9] = PBMC + LPS(5 ug/ml) + test article 0.01 uM, Mean
[10] = PBMC + LPS(5 ug/ml) + test article 0.01 uM, single replicates
[11] = PBMC + LPS(5 ug/ml) + test article 0.1 uM, Mean
[12] = PBMC + LPS(5 ug/ml) + test article 0.1 uM, single replicates
[13] = PBMC + LPS(5 ug/ml) + test article 1 uM, Mean
[14] = PBMC + LPS(5 ug/ml) + test article 1 uM, single replicates
[15] = PBMC + LPS(5 ug/ml) + test article 10 uM, Mean
[16] = PBMC + LPS(5 ug/ml) + test article 10 uM, single replicates
[17] = PBMC + LPS(5 ug/ml) + test article 100 uM, Mean
[18] = PBMC + LPS(5 ug/ml) + test article 100 uM, single replicates
[19] = PBMC + LPS(5 ug/ml), test article 0.001 uM, Mean
[20] = PBMC + LPS(5 ug/ml), test article 0.001 uM, single replicates
[21] = PBMC + LPS(5 ug/ml), test article 0.01 uM, Mean
[22] = PBMC + LPS(5 ug/ml), test article 0.01 uM, single replicates
[23] = PBMC + LPS(5 ug/ml), test article 0.1 uM, Mean
[24] = PBMC + LPS(5 ug/ml), test article 0.1 uM, single replicates
[25] = PBMC + LPS(5 ug/ml), test article 1 uM, Mean
[26] = PBMC + LPS(5 ug/ml), test article 1 uM, single replicates
[27] = PBMC + LPS(5 ug/ml), test article 10 uM, Mean
[28] = PBMC + LPS(5 ug/ml), test article 10 uM, single replicates
[29] = PBMC + LPS(5 ug/ml), test article 100 uM, Mean
[30] = PBMC + LPS(5 ug/ml), test article 100 uM, single replicates

For `CC(C)C[C@H](NC(=O)CNC(=O)[C@H](CC(C)C)NC(=O)[C@H](CCC(N)=O)NC(=O)CNC(=O)[C@@H]1C[C@@H](O)CN1)C(=O)N[C@@H](C)C(=O)NCC(=O)N1CCC[C@H]1C(=O)N[C@@H](CCCCN)C(=O)O` [YDE-011] (H-[Hyp]GQLGLAGPK-OH), the Live cell [1] was 5.4 ± 0.4 10^5/ml, the Total cell [1] was 6.3 ± 0.2 10^5/ml and the Live cell [2] was 5.9 ± 0.4 10^5/ml. For the same compound, the Total cell [2] was 7.3 ± 0.4 10^5/ml, the Live cell [3] was 5.8 ± 0.5 10^5/ml and the Total cell [3] was 7.1 ± 0.7 10^5/ml. The Live cell [4] was 5.0 ± 0.2 10^5/ml, the Total cell [4] was 6.4 ± 0.3 10^5/ml and the Live cell [5] was 5.3 ± 0.3 10^5/ml. The Total cell [5] was 6.0 ± 0.4 10^5/ml, the Live cell [6] was 6.1 ± 0.0 10^5/ml and the Total cell [6] was 8.2 ± 0.4 10^5/ml. The Live cell [7] was 5.4 10^5/ml, the “Live cell (10^5/ml)” value [7] was 5.4 10^5/ml and the “Live cell, Mean” value [7] was 5.4 10^5/ml. The Live cell (PBMC + LPS(5 ug/ml) + test article 0.001 uM, individual replicates) was 4.5 10^5/ml and 5.8 10^5/ml (2×), the Live cell (PBMC + LPS(5 ug/ml) + test article 0.001 uM, individual replicates (1st, 2nd, 3rd)) was 4.5 10^5/ml and 5.8 10^5/ml (2×) and the Live cell [8] was 4.5 10^5/ml and 5.8 10^5/ml (2×). For the same compound, the “Live cell (10^5/ml)” value [8] was 4.5 10^5/ml and 5.8 10^5/ml (2×), the Live cell (PBMC + LPS(5 ug/ml) + test article 0.001 uM, single replicates (1st, 2nd, 3rd)) was 4.5 10^5/ml and 5.8 10^5/ml (2×) and the Live cell [9] was 5.9 10^5/ml. The “Live cell (10^5/ml)” value [9] was 5.9 10^5/ml, the “Live cell, Mean” value [9] was 5.9 10^5/ml and the Live cell (PBMC + LPS(5 ug/ml) + test article 0.01 uM, individual replicates) was 6.2 10^5/ml and 5.1 10^5/ml and 6.3 10^5/ml. For the same compound, the Live cell (PBMC + LPS(5 ug/ml) + test article 0.01 uM, individual replicates (1st, 2nd, 3rd)) was 6.2 10^5/ml and 5.1 10^5/ml and 6.3 10^5/ml, the Live cell [10] was 6.3 10^5/ml and 6.2 10^5/ml and 5.1 10^5/ml and the “Live cell (10^5/ml)” value [10] was 6.3 10^5/ml and 6.2 10^5/ml and 5.1 10^5/ml. The Live cell (PBMC + LPS(5 ug/ml) + test article 0.01 uM, single replicates (1st, 2nd, 3rd)) was 6.2 10^5/ml and 5.1 10^5/ml and 6.3 10^5/ml, the Live cell [11] was 5.8 10^5/ml and the “Live cell (10^5/ml)” value [11] was 5.8 10^5/ml. For the same compound, the “Live cell, Mean” value [11] was 5.8 10^5/ml, the Live cell (PBMC + LPS(5 ug/ml) + test article 0.1 uM, individual replicates) was 6.6 10^5/ml and 5.0 10^5/ml and 5.7 10^5/ml and the Live cell (PBMC + LPS(5 ug/ml) + test article 0.1 uM, individual replicates (1st, 2nd, 3rd)) was 6.6 10^5/ml and 5.0 10^5/ml and 5.7 10^5/ml. The Live cell [12] was 6.6 10^5/ml and 5.0 10^5/ml and 5.7 10^5/ml, the “Live cell (10^5/ml)” value [12] was 6.6 10^5/ml and 5.0 10^5/ml and 5.7 10^5/ml and the Live cell (PBMC + LPS(5 ug/ml) + test article 0.1 uM, single replicates (1st, 2nd, 3rd)) was 6.6 10^5/ml and 5.0 10^5/ml and 5.7 10^5/ml. For the same compound, the Live cell [13] was 5.0 10^5/ml, the “Live cell (10^5/ml)” value [13] was 5.0 10^5/ml and the “Live cell, Mean” value [13] was 5.0 10^5/ml. For the same compound, the Live cell (PBMC + LPS(5 ug/ml) + test article 1 uM, individual replicates) was 5.5 10^5/ml and 4.8 10^5/ml (2×), the Live cell (PBMC + LPS(5 ug/ml) + test article 1 uM, individual replicates (1st, 2nd, 3rd)) was 5.5 10^5/ml and 4.8 10^5/ml (2×) and the Live cell [14] was 5.5 10^5/ml and 4.8 10^5/ml (2×). For the same compound, the “Live cell (10^5/ml)” value [14] was 5.5 10^5/ml and 4.8 10^5/ml (2×), the Live cell (PBMC + LPS(5 ug/ml) + test article 1 uM, single replicates (1st, 2nd, 3rd)) was 5.5 10^5/ml and 4.8 10^5/ml (2×) and the Live cell [15] was 5.3 10^5/ml. For the same compound, the “Live cell (10^5/ml)” value [15] was 5.3 10^5/ml, the “Live cell, Mean” value [15] was 5.3 10^5/ml and the Live cell (PBMC + LPS(5 ug/ml) + test article 10 uM, individual replicates) was 5.4 10^5/ml and 5.8 10^5/ml and 4.7 10^5/ml. For the same compound, the Live cell (PBMC + LPS(5 ug/ml) + test article 10 uM, individual replicates (1st, 2nd, 3rd)) was 5.4 10^5/ml and 5.8 10^5/ml and 4.7 10^5/ml, the Live cell [16] was 5.4 10^5/ml and 5.8 10^5/ml and 4.7 10^5/ml and the “Live cell (10^5/ml)” value [16] was 5.4 10^5/ml and 5.8 10^5/ml and 4.7 10^5/ml. For the same compound, the Live cell (PBMC + LPS(5 ug/ml) + test article 10 uM, single replicates (1st, 2nd, 3rd)) was 5.4 10^5/ml and 5.8 10^5/ml and 4.7 10^5/ml, the Live cell [17] was 6.1 10^5/ml and the “Live cell (10^5/ml)” value [17] was 6.1 10^5/ml. For the same compound, the “Live cell, Mean” value [17] was 6.1 10^5/ml, the Live cell (PBMC + LPS(5 ug/ml) + test article 100 uM, individual replicates) was 6.1 10^5/ml (2×) and 6.0 10^5/ml and the Live cell (PBMC + LPS(5 ug/ml) + test article 100 uM, individual replicates (1st, 2nd, 3rd)) was 6.1 10^5/ml (2×) and 6.0 10^5/ml. For the same compound, the Live cell [18] was 6.1 10^5/ml (2×) and 6.0 10^5/ml, the “Live cell (10^5/ml)” value [18] was 6.1 10^5/ml (2×) and 6.0 10^5/ml and the Live cell (PBMC + LPS(5 ug/ml) + test article 100 uM, single replicates (1st, 2nd, 3rd)) was 6.1 10^5/ml (2×) and 6.0 10^5/ml. For the same compound, the Live cell (PBMC + LPS(5 ug/ml), 0.001 uM, Mean) was 5.4 10^5/ml, the Live cell (PBMC + LPS(5 ug/ml), 0.001 uM, single replicates) was 4.5 10^5/ml and 5.8 10^5/ml (2×) and the Live cell (PBMC + LPS(5 ug/ml), 0.01 uM, Mean) was 5.9 10^5/ml. For the same compound, the Live cell (PBMC + LPS(5 ug/ml), 0.01 uM, single replicates) was 6.2 10^5/ml and 5.1 10^5/ml and 6.3 10^5/ml, the Live cell (PBMC + LPS(5 ug/ml), 0.1 uM, Mean) was 5.8 10^5/ml and the Live cell (PBMC + LPS(5 ug/ml), 0.1 uM, single replicates) was 6.6 10^5/ml and 5.0 10^5/ml and 5.7 10^5/ml. The Live cell (PBMC + LPS(5 ug/ml), 1 uM, Mean) was 5.0 10^5/ml, the Live cell (PBMC + LPS(5 ug/ml), 1 uM, single replicates) was 5.5 10^5/ml and 4.8 10^5/ml (2×) and the Live cell (PBMC + LPS(5 ug/ml), 10 uM, Mean) was 5.3 10^5/ml. For the same compound, the Live cell (PBMC + LPS(5 ug/ml), 10 uM, single replicates) was 5.4 10^5/ml and 5.8 10^5/ml and 4.7 10^5/ml, the Live cell (PBMC + LPS(5 ug/ml), 100 uM, Mean) was 6.1 10^5/ml and the Live cell (PBMC + LPS(5 ug/ml), 100 uM, single replicates) was 6.1 10^5/ml (2×) and 6.0 10^5/ml. For the same compound, the Live cell [19] was 5.4 10^5/ml, the Total cell count [19] was 6.3 10^5/ml and the Live cell [20] was 4.5 10^5/ml and 5.8 10^5/ml (2×). For the same compound, the Total cell count [20] was 5.9 10^5/ml and 6.3 10^5/ml and 6.6 10^5/ml, the Viability [20] was 75.0% and 92.0% and 88.0% and the Live cell [21] was 5.9 10^5/ml. For the same compound, the Total cell count [21] was 7.3 10^5/ml, the Live cell [22] was 6.3 10^5/ml and 6.2 10^5/ml and 5.1 10^5/ml and the Total cell count [22] was 7.6 10^5/ml and 7.8 10^5/ml and 6.4 10^5/ml. For the same compound, the Viability [22] was 79.0%, the Live cell [23] was 5.8 10^5/ml and the Total cell count [23] was 7.1 10^5/ml. For the same compound, the Live cell [24] was 6.6 10^5/ml and 5.0 10^5/ml and 5.7 10^5/ml, the Total cell count [24] was 7.8 10^5/ml and 5.7 10^5/ml and 7.7 10^5/ml and the Viability [24] was 85.0% and 87.0% and 74.0%. The Live cell [25] was 5.0 10^5/ml, the Total cell count [25] was 6.4 10^5/ml and the Live cell [26] was 5.5 10^5/ml and 4.8 10^5/ml. For the same compound, the Total cell count [26] was 6.2 10^5/ml and 7.0 10^5/ml and 5.9 10^5/ml, the Viability [26] was 89.0% and 69.0% and 81.0% and the Live cell [27] was 5.3 10^5/ml. The Total cell count [27] was 6.0 10^5/ml, the Live cell [28] was 5.4 10^5/ml and 5.8 10^5/ml and 4.7 10^5/ml and the Total cell count [28] was 5.9 10^5/ml and 6.7 10^5/ml and 5.4 10^5/ml. For the same compound, the Viability [28] was 91.0% and 86.0% and 88.0%, the Live cell [29] was 6.1 10^5/ml and the Total cell count [29] was 8.2 10^5/ml. For the same compound, the Live cell [30] was 6.1 10^5/ml (2×) and 6.0 10^5/ml, the Total cell count [30] was 7.6 10^5/ml and 8.1 10^5/ml and 9.0 10^5/ml and the Viability [30] was 81.0% and 75.0% and 67.0%. For the same compound, the “which treatments consistently affected the total and live number of PBMCs or the percent viability (in words)” value (up to 100 μM, 24-hour treatment) was “none of”.
